Laboratory results as given in patent US20120283298A1, “METHODS FOR TREATING MEMORY IMPAIRMENT” (priority 2009, published 2012).
Entries after “also recorded” stand apart in the source; their conditions may differ.

Columns and labels:
SAMP8 mice [1] = assay: T-maze acquisition and retention after chronic i.p. administration; assay type: in vivo, mouse; details: for mean trials to first avoidance versus vehicle (learning): day 21
Experimental: T-Maze testing. The T-maze avoidance apparatus, training and testing procedures were as previously described in Example 1. […] Dosing range for i.p. administration (0.2-200 μg) was extrapolated from previous i.c.v. administration data as described in Example 1 above. Respective doses were given once a day over a period of 28 days. Learning and memory was assessed by the T-maze model. Learning evaluations were conducted at three weeks of treatment (day 21), while memory was assessed after one additional week of treatment (day 28). […] At the end of the evaluations mice were decapitated and the brains flash frozen and stored at −80° C. for subsequent analyses.

SAMP8 mice [2] = assay: T-maze foot-shock avoidance acquisition after acute i.c.v. injection; assay type: in vivo, mouse
Source text: T-Maze Testing. The T-maze avoidance apparatus training and testing procedures have been previously described, and shown as an effective means to assess learning in SAMP8 mice (Flood and Morley, 1993; Farr et al., 2000). […] Octreotide is a primarily SSTR2 agonist, of the SRIF-1 family, serving as an additional control set. Forty-eight hours prior to testing, the mice were anesthetized with 2,2,2-tribromoethanol, placed in a stereotaxic instrument, and the scalp was deflected. A unilateral hole was drilled 0.5 mm anterior and 1.0 mm to the right of the bregma. […] This time frame is consistent with work by others showing somatostatin administration over 24 hrs decreased Aβ1-42 concentrations in the brain (Saito et al., 2005). […] Twenty-four hours following drug administration mice were evaluated using the T-maze test.
The T-maze consisted of a black plastic alley with a start box at one end and two goal boxes at the other. The start box was separated from the alley by a plastic guillotine door, which prevented movement down the alley until training began. An electrifiable stainless steel rod floor ran throughout the maze to deliver scrambled foot-shock. Mice were trained and tested between 07:00 and 15:00 h. Mice were not permitted to explore the maze prior to training. A block of training trials began when a mouse was placed into the start box. The guillotine door was raised and a buzzer sounded simultaneously; 5 s later foot-shock was applied. The goal box entered on the first trial was designated “incorrect” and the foot-shock was continued until the mouse entered the other goal box, which in all subsequent trials was designated as “correct” for the particular mouse. At the end of the acquisition trial, mice were decapitated and the brains flash frozen and stored at −80° C. for subsequent analyses.

Aβ42 = assay: ELISA analysis of Aβ42 in brain tissue ex vivo; design: species or system mouse
Experimental: Brain levels of Aβ42 were evaluated ex vivo, from flash frozen whole brain tissue following respective behavioral analyses, using ultra-centrifugation and solid phase extraction methods (Lanz and Schachter, 2006; Zupa-Fernandez et al., 2007), coupled with Enzyme-linked immunosorbent assay (ELISA) analysis. Half of the brain tissue was dedicated to Western blot examinations with remainder used for Aβ42 evaluation. Brain tissue was homogenized and incubated with 1 mL 50 mM NaCl, 0.4% DEA, pH=10, containing protease inhibitor (Roche, Indianapolis, Ind.). Samples were kept on ice for 20 min, followed by sonication at 30% for 30 sec. Samples were then incubated at room temperature (3 h) followed by centrifugation at 355,000×g for 30 min (4° C.). Supernatant was collected for extraction using Oasis HLB 3 cc columns (Waters, Milford, Mass.). Oasis columns were activated with 2 mL methanol (MeOH), followed by 2 mL diH2O. Brain homogenates were loaded in 1 mL increments. Samples were then washed sequentially with 1 mL volumes of 5% and 30% MeOH, then eluted with 1 mL 2% NH4OH in 90% MeOH. Eluted samples were collected and vacuum-centrifuged at 1400 rpm, 60° C. for 90-120 min. Once samples were dried completely, they were stored at −80° C. until assay. Samples were reconstituted and analyzed in duplicate according to ELISA assay directions (Beta-Mark Aβx-42, Covance, Dedham, Mass.) via luminometer (Lumistar Optima, BMG Labtech, Durham, N.C.). Aβ42 levels were calculated from linear-regression curve in pg/ml and then set to gram weight of brain tissue and normalized to respective controls.
Evaluation of Aβ. Brain levels of Aβ42 were evaluated ex vivo as described above in Example 1.

SSTR4, APP, and NEP = assay: Western blot expression of SSTR4, APP and NEP in brain tissue ex vivo; design: species or system mouse
Experimental: Protein expression of brain tissues was evaluated ex vivo, from flash frozen whole brain tissue following respective behavioral analyses, by Western blot analyses for SSTR4, APP and NEP. Tissues were homogenized in RIPA buffer containing protease inhibitor (Roche) using a 1:10 ratio (0.5 g=5 ml), transferred into tubes and spun at 10,000×g for 20 min (4° C.). The supernatant was taken and a protein assay was used to determine the amount of protein present. Samples (100 μg) were separated using an electrophoretic field on Biorad (Bio-Rad, Hercules, Calif.) Tris HCl gels (10%) at 175 V for 70 min following heating at 95° C. for 5 min. GelCode Blue Stain (Pierce, Rockford, Ill.) was used to confirm appropriate protein loading. The proteins were then transferred to nitrocellulose membranes with 240 mA at for 45 min (4° C.). The membranes were then blocked using 5% nonfat milk-Tris-buffered saline (20 mM Tris base, 137 mM NaCl, pH 7.6) with 0.1% Tween-20 for 4 h and then incubated overnight at 4° C. with primary antibodies (1:1,000-1:2,000 dilution) in PBS-0.5% BSA. Antibodies shown effective: SSTR4 (Sigma-Aldrich), NEP (Millipore, Billerica, Mass.), and APP (Millipore). The membranes were then washed with 5% nonfat milk-Tris-buffered saline buffer before incubation with the respective secondary antibody at a 1:2,000 dilution (in PBS-0.5% BSA) for 60 min at room temperature. Blots were developed using the enhanced chemiluminescence method (ECL+; Amersham Life Science Products; Springfield, Ill.), and protein bands visualized on X-ray film. Optical densities were measured by densitometer (Biorad) and evaluated against respective controls. After each initial protein expression assessment, membranes were then stripped and re-probed with actin (Sigma-Aldrich).
Protein expression in brain tissues was evaluated ex vivo as described above in Example 1.

SAMP8 mice [3] = assay: Object-recognition task after i.c.v. injection; assay type: in vivo, mouse; details: 0.2 μg i.c.v., 48 h after injection
Experimental: Object-recognition is a non-spatial memory recognition task, shown to be effective in SAMP8 mice (Bevins and Besheer, 2006; Fontan-Lozano et al., 2008). In this task, treated and control mice are measured as to the difference in time spent with a familiar (or remembered) object and a novel object. Mice received a single optimized dose (0.2 μg) determined from T-maze assessment, against vehicle control (0 μg). Dosing was performed 24 h prior to the initial training period and the recognition task was evaluated 24 h after training (i.e. 48 h after dosing). Mice were habituated to an empty apparatus (55×40×40 cm) for 5 min a day for 3 days prior to entry of the objects. On the day of training two similar objects were placed in the maze. Mice were placed in the maze and allowed to explore the objects for 5 min. In the 24-h retention test, one of the same objects is placed in the maze, as well as a new object in a new location. The difference in percent time spent exploring the new object over the familiar object was then determined. The criteria for exploration were based strictly on active exploration, where the mouse had both forelimbs within a circle of 1.5 cm around the object, with its head oriented toward it, or when touching it with its vibrissae. At the end of the retention trial, mice were decapitated and the brains flash frozen and stored at −80° C. for subsequent analyses.

APPswe transgenic mice = assay: T-maze avoidance learning acquisition in APPswe transgenic mice after i.c.v. injection; assay type: in vivo, mouse; details: 0.2 μg i.c.v.
Source text: The APPswe transgenic mouse carries a transgene coding for the 695-amino acid isoform of human Alzheimer A R precursor protein. (K. Hsiao et al., 274 Science 99-102, 1996). These mice express high concentrations of the mutant AR , with significant amyloid plaques, and display memory deficits. At 11-13 months of age they show a 14-fold increase in AR (1-42/43) over those at 2-8 months of age. Elevated AR levels are associated with the development of amyloid deposits in frontal, temporal and entorhinal cortex, hippocampus, presubiculum, and cerebellum, with some mice developing the signature cross pattern of deposits seen inhuman AD. […] Thus APPswe transgenic mice are also a good model for studying APP expression, amyloid plaque formation, neuronal decline, and memory loss associated with AD, and for studying drug candidates for treatment or prevention of AD. APPswe (Tg2576) mice, and non-transgenic siblings as controls, were obtained from Taconic (New York). All other materials and methods were as described for Example 1.
AAPswe transgenic mice were administered 0.2 μg of NNC 26-91001.c.v. after a 2 hour fasting period, followed by an additional hour of fasting after administration. Animals were tested using the T-maze model as described above in Example 1.

[4] = Body weight and behaviour during chronic i.p. dosing; assay type: in vivo, mouse; details: SAMP8 mice, i.p. 0.2-200 μg once a day, 28 days
[5] = 0.2 μg i.c.v., after object-recognition task

Compound: S=C(NCCCc1c[nH]cn1)N(CCc1c[nH]c2ccccc12)Cc1cccc(Cl)c1Cl [LIU 686-06A]
- mean trials to first avoidance versus vehicle (learning) (SAMP8 mice [1]; i.p. 0.2 μg daily): significantly lower number of mean trials to first avoidance
- mean trials to criterion versus vehicle (SAMP8 mice [1]; i.p. 20 μg daily, day 21 as printed): significantly lower number of mean trials to first criterion

Compound: S=C(NCCCc1c[nH]cn1)NCCCN(Cc1ccc(Cl)c(Cl)c1)c1ccc(Br)cn1 [NNC 26-9100]
- mean trials to first avoidance versus NNC 26-9100 alone (SAMP8 mice [2]; 0.2 μg i.c.v. co-administered with 1 mM phosphoramidon, p<0.05): significant increase in the number of mean trials to first avoidance
- trials to first avoidance versus NNC 26-9100+1 mM phosphoramidon (SAMP8 mice [2]; 0.2 μg i.c.v. co-administered with 10 mM phosphoramidon): significantly higher number of trials to first avoidance
- mean trials to first avoidance versus NNC 26-9100 alone (SAMP8 mice [2]; 0.2 μg i.c.v. co-administered with 10 mM phosphoramidon, p<0.01): significant increase in the number of mean trials to first avoidance
- learned avoidance (mean trials to first avoidance) compared to vehicle (SAMP8 mice [2]; SAMP8 mice, i.c.v., 0.2 μg, T-maze 24 h after injection): significant improvement; also recorded: significantly lower number of mean trials to first avoidance
- Aβ42 versus NNC 26-9100 alone group (Aβ42; 0.2 μg i.c.v. + 10 mM phosphoramidon, post-T-maze): significant increase
- Aβ42 versus vehicle (Aβ42; [5]): no significant change
- decrease in Aβ42 compared to vehicle (Aβ42; SAMP8 brain, post-T-maze, i.c.v., all doses 0.002-2.0 μg): ~20%
- Aβ42 versus vehicle (Aβ42; chronic i.p. 20 μg daily, 28 days): significant decrease
- Aβ42 versus vehicle (Aβ42; chronic i.p., any other dose (0.2-200 μg range)): no significant changes
- SSTR4, APP, or NEP expression, NNC 26-9100 alone, co-administered phosphoramidon, and versus vehicle alone (SSTR4, APP, and NEP; 0.2 μg i.c.v., +1 mM or +10 mM phosphoramidon): No changes
- expression of SSTR4, APP, or NEP versus vehicle (SSTR4, APP, and NEP; [5]): No significant changes
- expression of SSTR4, APP, or NEP compared to vehicle (SSTR4, APP, and NEP; SAMP8 brain, i.c.v., 0.002-2.0 μg): no significant changes
- expression of SSTR4, APP, or NEP versus vehicle (SSTR4, APP, and NEP; chronic i.p., any dose (0.2-200 μg daily), 28 days): No significant changes
- enhancement in recognition memory (time with novel object) versus vehicle (SAMP8 mice [3]): approximately 2 fold
- mean trials to first avoidance versus vehicle (learning) (SAMP8 mice [1]; i.p. 20 μg daily): significantly lower number of mean trials to first avoidance
- mean trials to criterion versus vehicle (memory) (SAMP8 mice [1]; i.p. 20 μg daily, day 28, p<0.01): significantly lower mean trials to criterion
- mean trials to first avoidance versus vehicle (learning) (SAMP8 mice [1]; i.p. 200 μg daily): significantly lower number of mean trials to first avoidance
- mean trials to criterion versus vehicle (memory) (SAMP8 mice [1]; i.p. 200 μg daily, day 28, p<0.05): significantly lower mean trials to criterion
- avoidance learning acquisition (APPswe transgenic mice): effects in AAPswe transgenic mice similar to those obtained in SAMP8 mice
- weight loss or abnormal behaviors [4]: no animals in the study exhibiting weight loss or abnormal behaviors

Compound: C[C@@H](O)[C@@H]1NC(=O)[C@H](CCCCN)NC(=O)[C@@H](Cc2c[nH]c3ccccc23)NC(=O)[C@H](Cc2ccccc2)NC(=O)[C@@H](NC(=O)[C@H](N)Cc2ccccc2)CSSC[C@@H](C(=O)N[C@H](CO)[C@@H](C)O)NC1=O [octreotide, reference compound]
- learned acquisition compared to vehicle (SAMP8 mice [2]; SAMP8 mice, i.c.v., any dose 0.002-2.0 μg): no significant effects

Compound: CC(C)C[C@H](NP(=O)(O)O[C@@H]1O[C@@H](C)[C@H](O)[C@@H](O)[C@H]1O)C(=O)N[C@@H](Cc1c[nH]c2ccccc12)C(=O)O [phosphoramidon, reference compound]
- mean trials to first avoidance, vehicle versus vehicle combined with phosphoramidon (SAMP8 mice [2]; any dose of phosphoramidon (1 or 10 mM), i.c.v.): No significant change
- Aβ42 within vehicle groups (vehicle alone, +1 mM or +10 mM phosphoramidon) (Aβ42; i.c.v., post-T-maze): No change
